{"source": "ChEMBL document CHEMBL4190187", "about": "“Discovery of pyrazolopyrimidine derivatives as novel inhibitors of ataxia telangiectasia and rad3 related protein (ATR)” (Bioorg Med Chem Lett, 2017)", "key": {"[1]": {"target": "Phosphorylase b kinase gamma catalytic chain, liver/testis isoform (Homo sapiens) (UniProt P15735)", "assay": "Inhibition of recombinant human PhKgamma2 (1 to 301 residues) at 1 uM using KKLNRTLSFAEPG as substrate after 40 mins in presence of [gamma-33P]ATP by scintillation counting method"}, "[2]": {"target": "Phosphorylase b kinase gamma catalytic chain, skeletal muscle/heart isoform (Homo sapiens) (UniProt Q16816)", "assay": "Inhibition of recombinant full-length human PhKgamma1 at 1 uM using KKLNRTLSFAEPG as substrate after 120 mins in presence of [gamma-33P]ATP by scintillation counting method"}, "[3]": {"target": "Dual specificity protein kinase CLK2 (Homo sapiens) (UniProt P49760)", "assay": "Inhibition of recombinant human CLK2 (138 to end residues) at 1 uM using YRRAAVPPSPSLSRHSSPHQS(p)EDEEE as substrate after 40 mins in presence of [gamma-33P]ATP by scintillation counting method"}, "[4]": {"target": "Serine/threonine-protein kinase haspin (Homo sapiens) (UniProt Q8TF76)", "assay": "Inhibition of recombinant human Haspin (471 to end residues) at 1 uM using RARTLSFAEPG as substrate after 40 mins in presence of [gamma-33P]ATP by scintillation counting method"}, "[5]": {"target": "Ephrin type-A receptor 5 (Homo sapiens) (UniProt P54756)", "assay": "Inhibition of recombinant human EPHA5 (655 to 956 residues) at 1 uM using poly(Glu,Tyr) 4:1 as substrate after 40 mins in presence of [gamma-33P]ATP by scintillation counting method"}, "[6]": {"target": "Epithelial discoidin domain-containing receptor 1 (Homo sapiens) (UniProt Q08345)", "sequence (Q08345 whole entry, the tested form may be a part)": "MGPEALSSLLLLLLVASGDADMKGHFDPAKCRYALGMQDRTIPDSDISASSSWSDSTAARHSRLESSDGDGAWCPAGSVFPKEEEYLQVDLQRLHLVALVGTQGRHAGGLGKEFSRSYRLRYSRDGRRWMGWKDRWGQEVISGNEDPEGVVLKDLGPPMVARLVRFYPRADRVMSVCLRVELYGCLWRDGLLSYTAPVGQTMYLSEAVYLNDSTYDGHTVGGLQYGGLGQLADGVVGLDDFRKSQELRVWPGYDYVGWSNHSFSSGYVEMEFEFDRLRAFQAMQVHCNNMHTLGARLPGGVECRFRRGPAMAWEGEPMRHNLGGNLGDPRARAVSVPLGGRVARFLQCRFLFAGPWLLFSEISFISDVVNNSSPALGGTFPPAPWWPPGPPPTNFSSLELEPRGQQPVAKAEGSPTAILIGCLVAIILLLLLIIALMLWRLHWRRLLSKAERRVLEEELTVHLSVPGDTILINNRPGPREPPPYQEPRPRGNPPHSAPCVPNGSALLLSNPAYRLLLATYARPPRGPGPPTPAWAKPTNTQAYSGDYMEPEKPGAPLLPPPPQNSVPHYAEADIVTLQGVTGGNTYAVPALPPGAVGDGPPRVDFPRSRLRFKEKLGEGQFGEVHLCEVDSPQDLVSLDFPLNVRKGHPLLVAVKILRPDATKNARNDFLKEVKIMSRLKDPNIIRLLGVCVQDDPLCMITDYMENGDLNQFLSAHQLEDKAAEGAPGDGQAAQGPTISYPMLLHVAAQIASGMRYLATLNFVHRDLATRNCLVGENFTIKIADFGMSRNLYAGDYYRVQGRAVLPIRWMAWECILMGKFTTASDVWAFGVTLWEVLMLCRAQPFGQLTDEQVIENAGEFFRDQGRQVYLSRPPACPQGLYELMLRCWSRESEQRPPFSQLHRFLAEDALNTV", "assay": "Inhibition of recombinant human DDR1 (492 to end residues) at 1 uM using KKKSPGEYVNIEFG as substrate after 40 mins in presence of [gamma-33P]ATP by scintillation counting method"}, "[7]": {"target": "Platelet-derived growth factor receptor beta (Homo sapiens) (UniProt P09619)", "assay": "Inhibition of recombinant human PDGFRbeta (557 to end residues) at 1 uM using poly(Glu,Tyr) 4:1 as substrate after 40 mins in presence of [gamma-33P]ATP by scintillation counting method"}, "[8]": {"test_system": "Fibroblast growth factor receptor 1 (Homo sapiens), P11362 [V561M]", "sequence (P11362 whole entry V561M, the tested form may be a part)": "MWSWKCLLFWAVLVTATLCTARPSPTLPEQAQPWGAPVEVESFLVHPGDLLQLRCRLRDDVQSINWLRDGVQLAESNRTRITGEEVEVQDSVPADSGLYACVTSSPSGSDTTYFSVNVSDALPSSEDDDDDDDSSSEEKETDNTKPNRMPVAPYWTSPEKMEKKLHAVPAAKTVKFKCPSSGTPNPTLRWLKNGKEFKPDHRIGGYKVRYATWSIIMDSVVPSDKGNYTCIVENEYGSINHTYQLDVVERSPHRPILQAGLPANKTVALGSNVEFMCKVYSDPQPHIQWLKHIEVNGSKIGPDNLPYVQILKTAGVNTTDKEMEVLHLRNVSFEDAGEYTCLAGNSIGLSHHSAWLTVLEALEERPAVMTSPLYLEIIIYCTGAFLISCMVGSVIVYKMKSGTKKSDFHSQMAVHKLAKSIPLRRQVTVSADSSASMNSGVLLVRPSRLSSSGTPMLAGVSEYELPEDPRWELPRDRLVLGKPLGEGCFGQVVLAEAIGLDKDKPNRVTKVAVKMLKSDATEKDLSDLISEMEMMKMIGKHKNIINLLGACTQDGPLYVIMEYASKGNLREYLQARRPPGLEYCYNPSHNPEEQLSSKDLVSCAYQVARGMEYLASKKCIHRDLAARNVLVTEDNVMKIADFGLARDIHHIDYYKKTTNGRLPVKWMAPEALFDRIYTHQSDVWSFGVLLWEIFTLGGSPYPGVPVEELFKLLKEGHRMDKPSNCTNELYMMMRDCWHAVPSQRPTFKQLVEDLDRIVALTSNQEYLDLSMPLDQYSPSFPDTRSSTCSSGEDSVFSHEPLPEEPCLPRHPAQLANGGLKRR", "assay": "Inhibition of recombinant human FGFR1 V561M mutant (456 to 765 residues) at 1 uM using GGEEEEYFELVKKKK as substrate after 40 mins in presence of [gamma-33P]ATP by scintillation counting method"}, "[9]": {"target": "Wee1-like protein kinase (Homo sapiens) (UniProt P30291)", "assay": "Inhibition of recombinant human Wee1 (214 to end residues) at 1 uM using LSNLYHQGKFLQTFCGSPLYRRR as substrate after 40 mins in presence of [gamma-33P]ATP by scintillation counting method"}, "[10]": {"target": "Serine/threonine-protein kinase PLK3 (Homo sapiens) (UniProt Q9H4B4)", "assay": "Inhibition of recombinant human Plk3 (19 to 301 residues) at 1 uM using casein as substrate after 40 mins in presence of [gamma-33P]ATP by scintillation counting method"}, "[11]": {"target": "Mitogen-activated protein kinase kinase kinase 7 (Homo sapiens) (UniProt O43318)", "assay": "Inhibition of recombinant human TAK1 (1 to 303 residues) at 1 uM using casein as substrate after 40 mins in presence of [gamma-33P]ATP by scintillation counting method"}, "[12]": {"target": "Ephrin type-A receptor 1 (Homo sapiens) (UniProt P21709)", "assay": "Inhibition of recombinant human EPHA1 ([…]) at 1 uM using KKKSPGEYVNIEFG as substrate after 40 mins in presence of [gamma-33P]ATP by scintillation counting method"}, "[13]": {"target": "Mitogen-activated protein kinase kinase kinase 3 (Homo sapiens) (UniProt Q99759)", "assay": "Inhibition of recombinant full-length human MEKK3 at 1 uM using MBP as substrate after 40 mins in presence of [gamma-33P]ATP by scintillation counting method"}, "[14]": {"target": "Serine/threonine-protein kinase Nek1 (Homo sapiens) (UniProt Q96PY6)", "sequence (Q96PY6 whole entry, the tested form may be a part)": "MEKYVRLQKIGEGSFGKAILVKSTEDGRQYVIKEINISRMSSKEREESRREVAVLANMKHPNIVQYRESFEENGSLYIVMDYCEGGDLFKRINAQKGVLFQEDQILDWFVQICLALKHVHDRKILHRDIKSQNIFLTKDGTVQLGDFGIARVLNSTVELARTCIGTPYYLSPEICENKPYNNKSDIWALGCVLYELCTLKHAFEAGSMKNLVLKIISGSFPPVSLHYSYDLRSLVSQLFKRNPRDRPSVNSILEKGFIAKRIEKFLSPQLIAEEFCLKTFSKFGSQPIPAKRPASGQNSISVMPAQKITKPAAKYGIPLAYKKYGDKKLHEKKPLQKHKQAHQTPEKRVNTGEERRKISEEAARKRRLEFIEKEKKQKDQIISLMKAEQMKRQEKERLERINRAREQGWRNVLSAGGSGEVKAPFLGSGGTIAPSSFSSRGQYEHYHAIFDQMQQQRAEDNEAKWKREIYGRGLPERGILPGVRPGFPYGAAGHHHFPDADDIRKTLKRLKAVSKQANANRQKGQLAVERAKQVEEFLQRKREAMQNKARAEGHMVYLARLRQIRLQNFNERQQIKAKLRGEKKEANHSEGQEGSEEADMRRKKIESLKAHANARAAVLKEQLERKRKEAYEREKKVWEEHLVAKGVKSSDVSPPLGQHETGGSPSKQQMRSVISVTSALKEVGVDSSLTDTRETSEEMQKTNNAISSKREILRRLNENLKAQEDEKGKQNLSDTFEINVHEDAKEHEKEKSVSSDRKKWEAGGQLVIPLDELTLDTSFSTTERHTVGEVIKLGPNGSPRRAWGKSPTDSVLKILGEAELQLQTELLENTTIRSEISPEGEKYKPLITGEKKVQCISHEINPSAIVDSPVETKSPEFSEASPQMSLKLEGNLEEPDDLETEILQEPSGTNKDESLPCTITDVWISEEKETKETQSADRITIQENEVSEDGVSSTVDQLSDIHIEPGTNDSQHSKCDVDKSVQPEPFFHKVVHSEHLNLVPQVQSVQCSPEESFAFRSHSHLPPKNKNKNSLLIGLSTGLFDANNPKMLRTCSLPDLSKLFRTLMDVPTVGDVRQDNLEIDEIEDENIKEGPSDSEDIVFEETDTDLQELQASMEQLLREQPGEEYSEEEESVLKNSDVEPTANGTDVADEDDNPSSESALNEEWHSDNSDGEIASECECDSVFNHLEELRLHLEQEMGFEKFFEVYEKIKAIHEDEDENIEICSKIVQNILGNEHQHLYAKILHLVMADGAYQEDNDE", "assay": "Inhibition of recombinant human NEK1 (1 to 505 residues) at 1 uM using RLGRDKYKTLRQIRQ as substrate after 40 mins in presence of [gamma-33P]ATP by scintillation counting method"}, "[15]": {"target": "Death-associated protein kinase 2 (Homo sapiens) (UniProt Q9UIK4)", "assay": "Inhibition of recombinant full-length human DAPK2 at 1 uM using […] after 40 mins in presence of [gamma-33P]ATP by scintillation counting method"}, "[16]": {"target": "Tyrosine-protein kinase HCK (Homo sapiens) (UniProt P08631)", "assay": "Inhibition of recombinant human activated Hck (230 to 497 residues) at 1 uM using GGMEDIYFEFMGGKKK as substrate after 40 mins in presence of [gamma-33P]ATP by scintillation counting method"}, "[17]": {"target": "STE20-like serine/threonine-protein kinase (Homo sapiens) (UniProt Q9H2G2)", "assay": "Inhibition of recombinant human SLK (1 to 373 residues) at 1 uM using RLGRDKYKTLRQIRQ as substrate after 40 mins in presence of [gamma-33P]ATP by scintillation counting method"}, "[18]": {"target": "Protein kinase C beta type (Homo sapiens) (UniProt P05771)", "assay": "Inhibition of recombinant human PKCbeta1 (2 to end residues) at 1 uM using histone H1 as substrate after 40 mins in presence of [gamma-33P]ATP by scintillation counting method"}, "[19]": {"target": "Serine/threonine-protein kinase PRP4 homolog (Homo sapiens) (UniProt Q13523)", "assay": "Inhibition of recombinant human PRP4 (663 to end residues) at 1 uM using casein as substrate after 120 mins in presence of [gamma-33P]ATP by scintillation counting method"}, "[20]": {"target": "PI3K p110 alpha/p85 alpha (Mus musculus) (UniProt P26450+P42337)", "assay": "Inhibition of recombinant full-length mouse p110a E542K mutant/p85a at 1 uM using phosphatidylinositol 4,5-bisphosphate as substrate after 40 mins in presence of [gamma-33P]ATP by scintillation counting method", "format": "protein-complex assay"}, "[21]": {"target": "BDNF/NT-3 growth factors receptor (Homo sapiens) (UniProt Q16620)", "assay": "Inhibition of recombinant human TrkB (455 to end residues) at 1 uM using poly(Glu,Tyr) 4:1 as substrate after 40 mins in presence of [gamma-33P]ATP by scintillation counting method"}, "[22]": {"target": "CDK12/Cyclin K (Homo sapiens) (UniProt O75909+Q9NYV4)", "sequence (O75909 whole entry, looked up)": "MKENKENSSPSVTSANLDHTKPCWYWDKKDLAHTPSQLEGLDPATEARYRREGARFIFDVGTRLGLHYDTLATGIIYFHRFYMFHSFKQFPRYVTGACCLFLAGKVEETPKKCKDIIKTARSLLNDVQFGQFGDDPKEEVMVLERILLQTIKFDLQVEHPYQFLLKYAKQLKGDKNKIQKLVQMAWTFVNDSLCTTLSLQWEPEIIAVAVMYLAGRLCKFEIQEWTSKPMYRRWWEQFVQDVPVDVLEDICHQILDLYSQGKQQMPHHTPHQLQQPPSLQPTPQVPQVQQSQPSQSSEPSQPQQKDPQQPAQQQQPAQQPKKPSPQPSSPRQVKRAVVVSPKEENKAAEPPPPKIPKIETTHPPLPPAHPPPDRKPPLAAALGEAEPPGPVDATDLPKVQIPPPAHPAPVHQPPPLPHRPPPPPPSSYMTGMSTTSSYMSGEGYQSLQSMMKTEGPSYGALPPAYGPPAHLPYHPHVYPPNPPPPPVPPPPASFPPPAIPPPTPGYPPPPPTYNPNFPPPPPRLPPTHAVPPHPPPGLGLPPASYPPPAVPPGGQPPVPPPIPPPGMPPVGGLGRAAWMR", "sequence (Q9NYV4 whole entry, looked up)": "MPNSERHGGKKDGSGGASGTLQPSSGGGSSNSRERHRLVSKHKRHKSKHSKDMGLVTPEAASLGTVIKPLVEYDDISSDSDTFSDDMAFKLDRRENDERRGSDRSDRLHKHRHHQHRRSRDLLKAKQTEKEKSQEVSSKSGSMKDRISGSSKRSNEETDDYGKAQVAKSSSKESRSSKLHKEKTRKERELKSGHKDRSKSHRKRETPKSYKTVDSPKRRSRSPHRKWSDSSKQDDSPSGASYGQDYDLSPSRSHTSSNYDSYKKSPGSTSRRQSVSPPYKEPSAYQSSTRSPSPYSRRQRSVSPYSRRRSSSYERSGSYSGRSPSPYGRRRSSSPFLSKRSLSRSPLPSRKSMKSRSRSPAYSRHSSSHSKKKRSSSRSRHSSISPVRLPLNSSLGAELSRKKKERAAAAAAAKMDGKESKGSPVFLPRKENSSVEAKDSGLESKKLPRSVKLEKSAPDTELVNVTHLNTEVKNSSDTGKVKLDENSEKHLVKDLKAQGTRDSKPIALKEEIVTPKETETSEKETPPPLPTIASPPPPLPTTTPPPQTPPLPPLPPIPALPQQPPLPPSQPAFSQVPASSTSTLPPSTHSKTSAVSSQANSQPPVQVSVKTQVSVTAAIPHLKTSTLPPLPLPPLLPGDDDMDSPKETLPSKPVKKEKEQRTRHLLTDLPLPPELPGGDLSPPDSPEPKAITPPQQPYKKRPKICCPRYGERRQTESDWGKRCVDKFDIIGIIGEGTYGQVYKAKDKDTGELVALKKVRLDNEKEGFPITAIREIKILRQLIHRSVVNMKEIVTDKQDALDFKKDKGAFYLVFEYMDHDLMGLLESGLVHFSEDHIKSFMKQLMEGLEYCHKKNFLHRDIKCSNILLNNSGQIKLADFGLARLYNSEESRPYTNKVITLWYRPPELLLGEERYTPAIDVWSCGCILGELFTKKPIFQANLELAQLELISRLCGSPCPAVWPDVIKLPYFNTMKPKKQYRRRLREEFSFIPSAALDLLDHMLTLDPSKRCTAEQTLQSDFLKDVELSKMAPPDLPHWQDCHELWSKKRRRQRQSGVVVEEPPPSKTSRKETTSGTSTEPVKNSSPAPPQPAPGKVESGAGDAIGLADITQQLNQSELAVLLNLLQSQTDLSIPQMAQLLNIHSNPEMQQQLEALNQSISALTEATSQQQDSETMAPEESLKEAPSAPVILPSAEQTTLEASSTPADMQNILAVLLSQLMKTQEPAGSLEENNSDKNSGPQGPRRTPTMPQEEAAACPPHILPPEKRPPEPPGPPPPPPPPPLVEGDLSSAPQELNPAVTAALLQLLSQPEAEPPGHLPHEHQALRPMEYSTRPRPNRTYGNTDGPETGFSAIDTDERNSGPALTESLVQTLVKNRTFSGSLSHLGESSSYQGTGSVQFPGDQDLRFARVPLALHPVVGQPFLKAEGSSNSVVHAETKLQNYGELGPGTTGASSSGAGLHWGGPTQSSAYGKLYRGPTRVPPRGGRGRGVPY", "assay": "Inhibition of recombinant full-length human CDK12/Cyclin K at 1 uM using RSRSRSRSRSRSRSR as substrate after 120 mins in presence of [gamma-33P]ATP by scintillation counting method", "format": "protein-complex assay"}, "[23]": {"target": "Tyrosine-protein kinase JAK1 (Homo sapiens) (UniProt P23458)", "assay": "Inhibition of recombinant human JAK1 (866 to end residues) at 1 uM using GEEPLYWSFPAKKK as substrate after 40 mins in presence of [gamma-33P]ATP by scintillation counting method"}}}
{"smiles": "CS(=O)(=O)c1ccc(-n2nc(-c3cnc4[nH]ccc4c3)c3c(N)ncnc32)cc1", "values": [{"measurement": "inhibition", "setting": "[1]", "result": 16, "unit": "%"}, {"measurement": "inhibition", "setting": "[2]", "result": -4, "unit": "%"}, {"measurement": "inhibition", "setting": "[3]", "result": 13, "unit": "%"}, {"measurement": "inhibition", "setting": "[4]", "result": -9, "unit": "%"}, {"measurement": "inhibition", "setting": "[5]", "result": 8, "unit": "%"}, {"measurement": "inhibition", "setting": "[6]", "result": 92, "unit": "%"}, {"measurement": "inhibition", "setting": "[7]", "result": -7, "unit": "%"}, {"measurement": "inhibition", "setting": "[8]", "result": 12, "unit": "%"}, {"measurement": "inhibition", "setting": "[9]", "result": 1, "unit": "%"}, {"measurement": "inhibition", "setting": "[10]", "result": 3, "unit": "%"}, {"measurement": "inhibition", "setting": "[11]", "result": -3, "unit": "%"}, {"measurement": "inhibition", "setting": "[12]", "result": 24, "unit": "%"}, {"measurement": "inhibition", "setting": "[13]", "result": 9, "unit": "%"}, {"measurement": "inhibition", "setting": "[14]", "result": -4, "unit": "%"}, {"measurement": "inhibition", "setting": "[15]", "result": 4, "unit": "%"}, {"measurement": "inhibition", "setting": "[16]", "result": 93, "unit": "%"}, {"measurement": "inhibition", "setting": "[17]", "result": 7, "unit": "%"}, {"measurement": "inhibition", "setting": "[18]", "result": 6, "unit": "%"}, {"measurement": "inhibition", "setting": "[19]", "result": 4, "unit": "%"}, {"measurement": "inhibition", "setting": "[20]", "result": 11, "unit": "%"}, {"measurement": "inhibition", "setting": "[21]", "result": 4, "unit": "%"}, {"measurement": "inhibition", "setting": "[22]", "result": -5, "unit": "%"}, {"measurement": "inhibition", "setting": "[23]", "result": 36, "unit": "%"}]}
